# Patent publication US20240108008A1, “COMPOSITIONS COMPRISING MESOSULFURON-METHYL AND TEHP” (BAYER AKTIENGESELLSCHAFT, priority 2020, published 2024)
# What was measured:
# [1] = system: TRZAW, winter wheat; assay: Greenhouse selectivity trials, wheat crop injury post-emergence; format: in vivo, winter wheat (variety: Dekan); conditions: 2 kg of TEHP per hectare, in combination with mesosulfuron-methyl and/or a salt thereof
# Source text: The 00 damage (injury) indicated refers to the maximum damage observed in the respective crop.
# [2] = system: harmful plants; assay: Adjuvant effect on performance of mesosulfuron-methyl; format: in vivo; conditions: same application rate as tri(butoxyethyl) phosphate (TBEP)
smiles,measurement,setting,value
"CCCCC(CC)COP(=O)(OCC(CC)CCCC)OCC(CC)CCCC (centres unmarked) [TEHP, Tris(2-ethylhexyl) phosphate]",phytotoxic effects in crop plants such as wheat,[1],significant phytotoxic effects
same,effects as adjuvant in comparison to TBEP,[2],superior
